# Entries after “also recorded” stand apart in the source; their conditions may differ.
# Columns and labels:
# [1] = Circular dichroism (CD) spectroscopy of peptide assemblies; type: physicochemical; conditions: 100 µM, aqueous, 0.5 mm path
# Method: CD spectra of the peptide assemblies in aqueous solutions were recorded under the nitrogen atmosphere using a spectrophotometer JASCO J-820 (Jasco, Japan). A quartz cuvette with 0.5 mm path length was used as a sample container. Continuous scanning mode is applied. And each sample is scanned three times to obtain an averaged spectrum.
# [2] = test system: MCF-7 and Ect1/E6E7 cells; assay: Wound healing assay, cells lacking integrin α3β1; type: cell-based, human; conditions: 10-200 µM, 48 hr
# Method: (§1) Healthy cells were seeded in 96-well Image Lock plates (Essen Bioscience, UK). Each well contained 2 ×10^4 to 5 × 10^4 cells in 100 μL of complete cell culture medium. Cell monolayer with approximately 90% confluence formed after 12 hr and cells were next starved in serum-free culture medium for 12 hrs. Homogenous scratch wounds with a width of about 700 μm were made by an Essen BioScienceWound Maker. The detached cells were washed with Dulbecco’s Buffered Saline (DPBS, Gibco) 3 times. Cells were incubated with 100 μL of culture medium containing 0.5 % FBS and desired concentration of each peptide. Wound closure was monitored by an IncucyteS3 (Essen Bioscience) with a 10x objective. Images for each well were acquired every 2 hr to 8 hr for 2 days or until the wounds were closed completely. The wound healing rate was quantified by Incucyte Scratch Wound Analysis Module (Essen Bioscience). The experiments were repeated at least 3 times, and the results were presented as mean ± standard deviation of at least 3 independent experiments.
# [3] = test system: integrin α3β1 expressing cells (HuH-7, HeLa, HepG2, A549, MKN1, and U-87 MG); assay: Wound healing assay, integrin α3β1 expressing cells; type: cell-based, human; conditions: 10-200 µM
# Method: as §1
# [4] = FTIR microscopy of peptide assemblies; type: physicochemical; conditions: freeze-dried on CaF2, aqueous assembly
# Source text: To prepare FTIR samples, an aliquot of the peptide solution was dropped on a TS CaF2 window (5 mm diameter) (Edmund Optics, Japan) and freeze-dried using a lyophilizer (Freeze Dryer, Labconco). The CaF2 Window with assembled nanofilaments was mounted for FTIR microscopic analysis. FTIR microscopic analysis of a plain CaF2 Window served as the reference. An FTIR microscope (Nicolet iN10, Thermo Fisher Scientific) equipped with an MCT detector was used for collecting IR spectra. Spectra ranging from 4000 to 650 cm^−1 were obtained in transmission mode, aperture of 50 μm, with the resolution of 2 cm^−1. Each spectrum was derived from an average of 128 scans for each sample.
# [5] = test system: Rac1 in HuH-7 cells (RaichuEV-Rac1); assay: Rac1 activity by FRET; type: cell-based, human
# Source text: The mGFP-paxillin expression vector was a gift from A. Kusumi (Okinawa Institute of Science and Technology, Japan). pGFP-FAK and pEGFP-vinculin were gifts from Kenneth Yamada (RRID: Addgene_50513 and Addgene¬_50515)[39], EGFP-talin, mVenus-Integrin-Beta1 and mRuby-Lifeact-7 was a gift from Michael Davidson (RRID: Addgene_54560). pEGFPC1/Gg Vinculin 1-258 (akaVD1) was a gift from S. Craig (RRID: Addgene_46270)[40]. The Rac1 FRET Sensor, pCAGGS-RaichuEV-Rac1was generously provided by K. Aoki (National Institute for Basic Biology, Japan)[41] and the RhoA FRET sensor, DORA-RhoA was generously provided by Yi I. Wu (University of Connecticut Health Center, USA)[42]. The expression vectors for Rac1/Tiam1 activation system (Lyn11-linker-FRB, YFP-FKBP, YFP-FKBP-linker-Tiam1, and pTriEx-PA-Rac1) was generously provided by T. Inoue (Johns Hopkins University, USA)[43].
# [6] = test system: HuH-7 cells; assay: Random cell migration assay; type: cell-based, human
# Method: HuH-7 cells were labeled with fluorescent protein fusion constructs or Hoechst 33342. After being treated with or without the peptides for 12 hr, the cells were tracked with a 20x/0.8 Plan-Apochromat objective for 6 h. The centroids of labeled cells were tracked using the TrackMate plugin (https://imagej.net/plugins/trackmate/) in ImageJ[44]. A custom MATLAB script generated by a person was applied to reconstruct the cell migration trajectory. […]
# The directionality of the cell movement was described by the persistence index and the persistent time, the persistence index was defined by the ratio of the vectorial distance (the distance between the origin and the endpoint of the movement) and the length of the total path and the persistent time is defined as the time it takes for the cell to change the initial direction by 90°[45].
# [7] = test system: HuH-7 cells; assay: Cell spreading evaluation (phalloidin staining); type: cell-based, human
# Method: All microscope imaging was performed with a Zeiss LSM 780 or Olympus SD-OSR. To assess the F-actin organization after certain treatments, cells were seeded on a glass-bottom culture dish (D11130H, Matsunami). After culture with the peptides, cells were fixed with 4% paraformaldehyde phosphate buffer solution (PFA, 30525-89-4, Wako) for 10 min at room temperature, washed, and permeabilized with 0.1% Triton X-100 (Sigma) in PBS for 15 min. Cells were washed with DPBS twice and incubated with ActinRed (Rhodamine-conjugated phalloidin, R37112, Invitrogen) or ActinGreen (Alexa-Fluor-488-conjugated phalloidin, R37110, Invitrogen) for 15 min at room temperature. Cells were washed with DPBS before being imaged. Morphological characteristics, including cell spreading area and perimeter area ratio, were quantified by Image J.
# [8] = vin258-transfected HuH-7, 12 hr, n = 51 cells, mean
sequence,measurement,setting,value
FFFIKLLI [assembling ligand: FFF coupled to the N-terminus of IKLLI; self-assembles into nanofilaments],secondary structure of self-assembly,[1],random coil structure
same,effect on cell migration,[2],negligible influence
same,effect on cell migration,[3],suppression effect
same,hydrogen bonding by FTIR,[4],NH-N
same,"Rac1 activity, FRET/CFP","[5]; 12 hr, n = 50 cells, mean",1.262
same,Rac1 activity,[5]; HuH-7,great inhibition; also recorded: global inhibition
same,"cell motility, vin258-expressing cells","[6]; HuH-7 expressing vin258, 12 h",suppression effect on cell motility was remained
same,migration speed,"[6]; Tiam1/Rac1-activated HuH-7, n = 230, 232 cells, p = 0.4508 vs Ctrl",0.3729 µm/min
same,migration speed,"[6]; vin258-transfected HuH-7, mean, n = 169, 176 cells",0.140 µm/min
same,Perimeter / Area,"[7]; Tiam1/Rac1-preactivated HuH-7, 12 hr, n = 64 cells, p = 0.5635 vs Ctrl",0.1130 µm-1
same,Spreading area,"[7]; Tiam1/Rac1-preactivated HuH-7, 12 hr, n = 64 cells, p = 0.8317 vs Ctrl",4496 µm2
same,Spreading area,"[7]; glass, FN or LM-5 coated dish (order not readable), 12 hr, value 2",1802 µm2
same,Spreading area,"[7]; glass, FN or LM-5 coated dish (order not readable), 12 hr, value 3",1763 µm2
same,Perimeter / Area,[7]; [8],0.2881 µm-1
same,Spreading area,[7]; [8],2047 µm2
